In ChEMBL document CHEMBL1158094, “Paratunamides A-D, oxindole alkaloids from Cinnamodendron axillare” (J Nat Prod, 2006):
≈ marks a conversion by molar mass, not a printed value.

What follows are compounds tested on KB (assay: Cytotoxicity against human KB cells).
Type: functional, cell-based

Row | Compound | IC50 [µg/mL]
1 | C=C[C@H]1[C@H](O[C@@H]2O[C@H](CO)[C@@H](O)[C@H](O)[C@H]2O)OC=C2C(=O)N(CC[C@]3(O)C(=O)Nc4ccccc43)C(=O)C[C@H]21 [PARATUNAMIDE C] | > 10
2 | C=C[C@H]1[C@H](O[C@@H]2O[C@H](CO)[C@@H](O)[C@H](O)[C@H]2O)OC=C2C(=O)N(CC[C@@]3(O)C(=O)Nc4ccccc43)[C@H](O)C[C@H]21 [PARATUNAMIDE D] | 6 (≈ 10.9 µM)
3 | C=C[C@H]1[C@H](O[C@@H]2O[C@H](CO)[C@@H](O)[C@H](O)[C@H]2O)OC=C2C(=O)N(CC[C@@]3(O)C(=O)Nc4ccccc43)C(=O)C[C@H]21 [PARATUNAMIDE B] | > 10
4 | C=C[C@H]1[C@H](O[C@@H]2O[C@H](CO)[C@@H](O)[C@H](O)[C@H]2O)OC=C2C(=O)N(CC[C@@]3(O)C(=O)Nc4ccccc43)[C@H](OC)C[C@H]21 [PARATUNAMIDE A] | > 10
